Reference: ChEMBL document CHEMBL5338726, “Characterization of Chlorogenic Acid as a Two-Photon Fluorogenic Probe that Regulates Glycolysis in Tumor Cells under Hypoxia” (J Med Chem, 2023)
Activity calls are given as the source filed them. The rule behind the calls is not given here.

Tests used:
[1] = test system: A-375; assay: Radical scavenging activity in 2-ME treated oxidative stress induced human A-375 cells assessed as increase in fluorescent signal at 10 uM incubated for 30 mins by confocal microscopic analysis; format: functional, cell-based
[2] = test system: A-375; assay: Radical scavenging activity in 2-ME treated oxidative stress induced human A-375 cells assessed as increase in fluorescent signal at 10 uM incubated for 30 mins followed by washout and addition of ascorbic acid by confocal microscopic analysis; format: functional, cell-based
[3] = test system: A-375; assay: Radical scavenging activity in 2-ME treated oxidative stress induced human A-375 cells assessed as increase in fluorescent signal at 10 uM incubated for 30 mins followed by washout and addition of superoxide dismutase by confocal microscopic analysis; format: functional, cell-based
[4] = test system: A-375; assay: Radical scavenging activity in 2-ME treated oxidative stress induced tumor bearing BALB/c-nu mouse xenografted in human A-375 cells assessed as increase in fluorescence intensity at 10 uM incubated for 30 mins by confocal microscopic analysis; format: functional, cell-based
[5] = test system: A-375; assay: Radical scavenging activity in 2-ME treated oxidative stress induced tumor bearing BALB/c-nu mouse xenografted in human A-375 cells assessed as increase in fluorescence intensity at 10 uM incubated for 30 mins followed by washout and addition of ascorbic acid by confocal microscopic analysis; format: functional, cell-based
[6] = Drug localization in 2-ME treated human A-375 cells assessed as fluorescence in mitochondrial apparatus at 10 uM incubated for 30 mins by mito-tracker green dye based confocal microscopy analysis; format: ADME, cell-based; conditions: a-375, 0.5 h
[7] = Drug localization in 2-ME treated human A-375 cells assessed as fluorescence in lysosomes at 10 uM incubated for 30 mins by lyso-tracker red dye based confocal microscopy analysis; format: ADME, cell-based; conditions: a-375, 0.5 h
[8] = test system: A-375; assay: Antiproliferative activity against human A-375 cells assessed as reduction in cell growth at 1.25 to 10 uM incubated for 72 hrs under hypoxia condition by MTT assay; format: functional, cell-based; conditions: dose 1.25-10 µM
[9] = test system: A-375; assay: Antiproliferative activity against human A-375 cells assessed as reduction in cell growth at 1.25 to 10 uM incubated for 72 hrs under normoxia condition by MTT assay; format: functional, cell-based; conditions: dose 1.25-10 µM
[10] = test system: A-375; assay: Antiproliferative activity against human A-375 cells assessed as reduction in colony number at 1.25 to 10 uM measured after 10 days under hypoxia condition by crystal violet staining based analysis; format: functional, cell-based; conditions: dose 1.25-10 µM, time 10.0 day
[11] = test system: A-375; assay: Antiproliferative activity against human A-375 cells assessed as reduction in colony number at 1.25 to 10 uM measured after 10 days under normoxia condition by crystal violet staining based analysis; format: functional, cell-based; conditions: dose 1.25-10 µM, time 10.0 day
[12] = test system: A-375; assay: Antitumor activity in human A-375 cells xenografted in BALB/c-nu mouse model assessed as inhibition of tumor growth at 25 to 50 mg/kg, ip administered once daily and measured every 3 days for 18 days; format: functional, organism-based; conditions: dose 25-50 mg/kg, time 18.0 day
[13] = Toxicity in BALB/c-nu mouse xenografted with human A-375 cells assessed as effect on body weight at 25 to 50 mg/kg, ip administered once daily fo 18 days post treatment; format: organism-based; conditions: in vivo, 432 h, dose 25-50 mg/kg, time 18 day
[14] = test system: A-375; assay: Antitumor activity in human A-375 cells xenografted in BALB/c-nu mouse model assessed as decrease in AMPKalpha phosphorylation 50 mg/kg, ip by Western blot analysis; format: functional, organism-based
[15] = test system: A-375; assay: Reduction in […] O2 level in human A-375 cells at 2.5 to 10 uM incubated for 72 hrs under hypoxia condition by DHE based flow cytometry analysis; format: functional, cell-based; conditions: dose 2.5-10 µM
[16] = test system: A-375; assay: Reduction in […] O2 level in human A-375 cells at 2.5 to 10 uM incubated for 72 hrs under normoxia condition by DHE based flow cytometry analysis; format: functional, cell-based; conditions: dose 2.5-10 µM
[17] = test system: A-375; assay: Reduction in AMPK phosphorylation level in human A-375 cells at upto 20 uM incubated for 72 hrs under hypoxic condition by Western blot analysis; format: functional, cell-based
[18] = test system: A-375; assay: Reduction in AMPK phosphorylation level in human A-375 cells at upto 20 uM incubated for 72 hrs under normoxic condition by Western blot analysis; format: functional, cell-based
[19] = test system: A-375; assay: Reduction in extracellular acidification rates in human A-375 cells at upto 10 uM incubated for 6 hrs under hypoxia condition; format: functional, cell-based
[20] = test system: A-375; assay: Reduction in ATP production in human A-375 cells at upto 10 uM incubated for 6 hrs under hypoxia condition by real-time ATP rate assay; format: functional, cell-based
[21] = test system: A-375; assay: Increase in oxygen consumption rate in human A-375 cells at upto 10 uM measured after 6 hrs under hypoxia condition; format: functional, cell-based
[22] = test system: A-375; assay: Reduction in extracellular acidification rates in human A-375 cells at upto 10 uM incubated for 6 hrs under normoxia condition; format: functional, cell-based
[23] = test system: A-375; assay: Reduction in ATP production in human A-375 cells at upto 10 uM incubated for 6 hrs under normoxia condition by real-time ATP rate assay; format: functional, cell-based
[24] = test system: A-375; assay: Increase in oxygen consumption rate in human A-375 cells at upto 10 uM measured after 6 hrs under normoxia condition; format: functional, cell-based

O=C(/C=C/c1ccc(O)c(O)c1)O[C@@H]1C[C@](O)(C(=O)O)C[C@@H](O)[C@H]1O [CHLOROGENIC ACID]
Activity [1]: Active
Activity [2]: inactive
Activity [3]: inactive
Activity [4]: Active
Activity [5]: inactive
Drug uptake [6]: Active
Drug uptake [7]: Not Active
Activity [8]: Active
Activity [9]: inactive
Activity [10]: Active
Activity [11]: inactive
Activity [12]: Active
Activity [13]: Non-Toxic
Activity [14]: Active
Activity [15]: Active
Activity [16]: inactive
Activity [17]: Active
Activity [18]: inactive
Activity [19]: Active
Activity [20]: Active
Activity [21]: Active
Activity [22]: inactive
Activity [23]: inactive
Activity [24]: inactive
